Consider three molecules from patent US20060149033A1, “IGF antagonist peptides” (GENENTECH, INC., priority 2001, published 2006).

One experiment deals with IGFBP3. In words: Peptide inhibition of phage IGF-1 binding to IGFBP-3. Set-up: species or system human. The settings on record: synthetic peptide preincubated 45 minutes with IGF-1 displaying phage; plates coated with IGF binding protein; read-out: BP3 Comp. As to the method:
(§1) Peptide Inhibition of Phage IGF-1 Binding to IGF Binding Proteins
(§2) For inhibition of IGFBP-1 and IGFBP3, E. coli cells (XL1-Blue, Stratagene) freshly transformed with the phage vector pIGF-g3 displaying human IGF-1 as described in Dubaquie and Lowman, supra, was grown overnight in 5 ml of 2YT medium (Sambrook et al., Molecular Cloning. A Laboratory Handbook (Cold Spring Harbor Laboratory Press, Cold Spring Harbor, N.Y., 1989)). The IGF-1 displaying phage was titered against IGF bp1 and bp3 for a 500-1000× dilution for preincubation with serial dilutions the synthesized peptides and binding protein standards for 45 minutes. Immunosorbant plates were coated with IGF binding proteins and blocked with 0.5% TWEEN®-20 detergent and PBS and washed as above. The samples were added to the plates for 20 minutes, washed and detected as above. The experimental IC50 values are in Table 5.

Experiment [1] has as its system IGF receptors on MCF-7 cells. Description: Displacement of 125I IGF-1 on MCF-7 cells. Also on record: species or system human. As to conditions: peptides preincubated with 2 nm 125I IGF-1 for 40 minutes at 37° C; added to cells for 30 minutes; read-out: MCF-7 binding. How it is done:
Displacement of IGF-1 on MCF-7 Cells
MCF7 (ATCC-HTB, Bethesda, Md.), a breast carcinoma cell line that expresses IGF receptors as well as insulin receptors (Grupe et al., J. Biol. Chem., 270, 22085-22088 (1995)) was used to detect inhibition of ^125I IGF-1 to receptors on cells by synthesized peptides. Cell were passaged weekly in media containing a 50/50 mix of high-glucose DMEM/Ham's F12, with 10% fetal bovine serum and 10 mM HEPES pH 7.2. Cells were plated and grown overnight maintained at 37° C. and 5% CO2. For IGF-1 iodination, 50 μg of IGF-1 was diluted into 200 μL of PBS and added to a tube coated with 100 μg of IODOGEN® 1,3,4,6-tetrachloro-3α-6β-diphenylglycouril) (Pierce Chemical Co.), incubated with 1 mCi of ^125I-NaI (10 μL) at room temperature for 10-15 minutes. Synthesized peptides and binding protein controls were preincubated with 2 nm ^125I IGF-1 for 40 minutes at 37° C. The samples were added to cells for 30 minutes. The cells were washed with media and lysed with 1N NaOH.
(In general: Displacement assays read how much labelled ligand stays bound in the presence of the test substance.)

The next experiment concerns the target IGFBP-1. Description: Peptide inhibition of phage IGF-1 binding to IGFBP-1. Also on record: species or system human. The settings on record: synthetic peptide preincubated 45 minutes with IGF-1 displaying phage; plates coated with IGF binding protein; read-out: BP1 Comp. As to the method:
as §1, §2

Experiment [2] concerns human type 1 IGF-1 receptor. In words: Cell-based IGF-1 KIRA assay. The settings on record: MCF-7 cells; peptides preincubated 30 min with 2 nm IGF-1; 15-minute stimulation. As to the method: Cell-Based IGF-1 KIRA Assay
A KIRA for measuring the activation of the human type 1 IGF-1 receptor was performed using human MCF-7 cells (as described above). Cells were grown overnight in 96-well plates with medium (50:50 F12/DMEM, Gibco). Supernatants were decanted, and stimulation media (50:50 F12/DMEM with 25 mM HEPES and 2.0% BSA) containing either controls (2 nM IGF-1 preincubated with IGF Bp1 or Bp3) or experimental samples (Peptides preincubated for 30 min. with 2 nm IGF-1) were added. After 15-minute stimulation the cells were lysed, and added to the polyclonal anti-IGF-R (3B7 Santa Cruz Biotech) coated overnight on immunosorbant plates. The detection ELISA was performed as above.

Experiment [3] concerns human insulin receptor (hIR). Description: Cell-based insulin KIRA assay (kinase receptor activation). As to conditions: Chinese hamster ovary cells transfected with hIR; peptides incubated with 25 nm IGF-1 for 1 hr; 15 min stimulation. How it is done: Cell-Based Insulin KIRA Assay of IGF-1 Binding Peptide Activity
A kinase receptor activation assay (KIRA) (Sadick et al., J. Pharm. Biomed. Anal., 19, 883-891 (1999)) for measuring phosphorylation of human insulin receptor (hIR) was developed using Chinese hamster ovary cells transfected with the hIR. (TRY-1R 5.3) Cells were grown overnight in 96-well plates with medium (PS/20) at 37° C. Supernatants were decanted and stimulation media (PS/20 and 0.5% BSA) containing either peptide samples (peptides incubated with 25 nm IGF-1 for 1 hr), experimental controls (IGF Bp1 incubated with IGF-1 for 1 hr), and 25 nm rhIGF-1 standards were added. After fifteen minute stimulation at 37° C., stimulation solutions were removed and cells were lysed with a buffer containing 50 mM HEPES, 150 mM NaCl, 0.5% Triton-X-100™ octylphenyl ethylene oxide condensate, 1 mM AEBSF, aprotinin and 0.05 mM leupeptin, and 2 mM sodium orthovanadate. Lysates were frozen at −70° C. for ELISA. Immunosorbant plates were coated with 2 μg/ml insulin receptor Ab-2 (clone 83-7) in PBS at pH 7.0 overnight at 4° C. The plate was blocked and washed as above. Cell lysates containing transfected hIR were incubated on the capture ELISA plates for 2 hrs. After removing unbound receptor by washing, biotinylated anti-phosphotyrosine 4G10 (Upstate Biologicals Inc.) was added to detect activated receptor. After 2 hrs, the plates were developed with streptavidin conjugated to HRP and TMB substrate as above.

Bridge positions count the residues as written; N and C are the ends. Peptide text beside a SMILES is read from it.

Regarding `CSCC[C@H](NC(=O)[C@@H]1CSSC[C@H](NC(=O)[C@H](CC(N)=O)NC(=O)[C@@H](N)CCCNC(=N)N)C(=O)N[C@@H](Cc2ccccc2)C(=O)N[C@@H](CCC(=O)O)C(=O)N[C@@H](CO)C(=O)N[C@@H](C(C)C)C(=O)N[C@@H](C)C(=O)N[C@@H](C)C(=O)N[C@@H](CC(C)C)C(=O)N[C@@H](CCCNC(=N)N)C(=O)N[C@@H](CCCNC(=N)N)C(=O)N1)C(=O)N[C@@H](Cc1ccc(O)cc1)C(=O)NCC(=O)O` [Peptide F1-1, RNCFESVAALRRCMYG] (H-RNCFESVAALRRCMYG-OH; disulfide 3-13), the IC50 was found to be 2.93 µM on IGFBP3; 5.12 µM in experiment [1]; 1.4 µM on IGFBP-1; 84.9 µM in experiment [2]; 5.48 µM in experiment [3].
The like results for `CSCC[C@H](NC(=O)[C@@H]1CSSC[C@H](NC(=O)[C@H](CCC(=O)O)NC(=O)[C@@H](N)Cc2ccccc2)C(=O)N[C@@H](CC(C)C)C(=O)N[C@@H]([C@@H](C)O)C(=O)N[C@@H](CO)C(=O)N[C@@H](C(C)C)C(=O)N[C@@H](CCC(=O)O)C(=O)N[C@@H](C)C(=O)N[C@@H](CC(C)C)C(=O)N[C@@H](CCCNC(=N)N)C(=O)NCC(=O)N1)C(=O)N[C@@H](Cc1ccc(O)cc1)C(=O)NCC(N)=O` [Peptide F1-3, FECLTSVEALRGCMYG] (H-FECLTSVEALRGCMYG-NH2; disulfide 3-13; N-terminus and C-terminus assumed) were, in that order, 12.8 µM, 45.7 µM, 11.7 µM, 102 µM and 66.1 µM.
The like results for `CSCC[C@H](NC(=O)[C@@H]1CSSC[C@H](NC(=O)[C@H](CC(=O)O)NC(=O)[C@@H](N)CCSC)C(=O)N[C@@H](CC(C)C)C(=O)N[C@@H](C)C(=O)N[C@@H](CO)C(=O)N[C@@H](C(C)C)C(=O)N[C@@H](CCC(=O)O)C(=O)N[C@@H](C)C(=O)N[C@@H](CC(C)C)C(=O)N[C@@H](CCCCN)C(=O)N[C@@H](Cc2c[nH]c3ccccc23)C(=O)N1)C(=O)N[C@@H](Cc1ccc(O)cc1)C(=O)NCC(=O)O` [Peptide F1-2, MDCLASVEALKWCMYG] (H-MDCLASVEALKWCMYG-OH; disulfide 3-13 (inferred); N-terminus and C-terminus assumed) were, in that order, 9.2 µM, 15.3 µM, 15.5 µM, 20 µM and 32.6 µM.
